Consider 1 substance from patent US6274348A, “Methods for the preparation of positively charged proteins” (XOMA Corporation, priority 1997, dated 2001).

Experiment [1] addresses T1, rBPI(1-191)-IgG fusion protein (human BPI residues 1-191 fused to human IgG1 heavy chain hinge-CH2-CH3) (Homo sapiens, UniProt P01857+P17213).
T1 construct: an rBPI(1-191)-IgG fusion protein was added to the wells of a 96-well plate; made in house; host or cells: CHO-DG44
The experiment can be described thus: direct 3H-heparin binding assay. The following applies: highest 3H heparin concentration tested 2.5 μM; protein at 100 pmol/well, one hour at 4° C. From the text: (§1) A direct ^3 H-heparin binding assay was utilized to analyze the comparative binding of rBPI(1-199) and rBPI-Ig fusions to heparin. The assay was based on the ability of a derivatized nylon membrane to bind proteins with high capacity. Such a membrane has been incorporated into the bottom of 96-well microtiter plates by Millipore Corp. (Bedford Mass.) (MULTISCREEN IP plates) and may be punched out of each well for scintillation counting.
(§2) To conduct the assay, rBPI(1-199) or an rBPI(1-191)-IgG fusion protein was added to the wells of a 96-well plate at a concentration of 100 pmol/well diluted with phosphate buffered saline (PBS), pH 7.4 nylon membrane. Upon absorption to the membrane, the wells were blocked with a blocking buffer comprising 0.1% bovine serum albumin (BSA) in PBS. Serial dilutions of ^3 H heparin (DuPont, NEN, Wilmington, Del.) were made from 4-5 μg/ml in the blocking buffer and incubated in the wells coated with either rBPI(1-199) and rBPI(1-191)-IgG for one hour at 4° C. After one hour, unbound heparin was aspirated and the wells were washed three times with blocking buffer, dried, and removed for quantitation of bound ^3 H-heparin by liquid scintillation counting.

The target in experiment [2] is T2, rBPI(1-199), first 199 N-terminal amino acids of mature human BPI (SEQ ID NOS: 1 and 2) (Homo sapiens, UniProt P17213).
T2 construct: made in house
T2 sequence (P17213 32-230): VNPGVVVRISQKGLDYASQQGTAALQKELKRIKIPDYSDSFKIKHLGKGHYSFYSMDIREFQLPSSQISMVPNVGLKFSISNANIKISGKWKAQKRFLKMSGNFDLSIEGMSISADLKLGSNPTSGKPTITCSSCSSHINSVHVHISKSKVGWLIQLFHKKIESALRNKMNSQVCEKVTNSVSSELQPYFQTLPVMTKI
As to the kind of experiment: direct 3H-heparin binding assay. To be noted: protein adsorbed to nylon membrane at 100 pmol/well, 3H heparin dilutions, one hour at 4° C., PBS pH 7.4 with 0.1% BSA; read-out: apparent affinity (Kd) for heparin.
Description: as §1, §2

T1 sequence (P17213+P01857 fused): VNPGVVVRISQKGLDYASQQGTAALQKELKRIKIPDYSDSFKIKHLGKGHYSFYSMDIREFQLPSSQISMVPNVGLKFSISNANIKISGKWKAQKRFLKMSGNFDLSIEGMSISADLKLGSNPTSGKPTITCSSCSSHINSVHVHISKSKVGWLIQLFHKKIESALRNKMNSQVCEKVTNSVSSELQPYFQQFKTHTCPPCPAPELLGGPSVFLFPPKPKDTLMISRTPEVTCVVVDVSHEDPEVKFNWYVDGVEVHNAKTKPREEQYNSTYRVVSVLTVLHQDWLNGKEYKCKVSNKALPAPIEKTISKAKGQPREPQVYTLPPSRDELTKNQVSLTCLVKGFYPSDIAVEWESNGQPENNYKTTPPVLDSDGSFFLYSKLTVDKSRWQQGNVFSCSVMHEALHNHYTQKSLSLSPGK

Consider heparin, for which the “saturation of 3H heparin binding” value in experiment [1] is on record as “did not reach saturation”. Further, in experiment [2], the Kd came to 114 ± 30 nM.
